Measured values taken from PMC4285699 (Journal of molecular biology, 2009).

Key:
[1] = molecular target: HIV-1 RT-associated RNase H activity (Human immunodeficiency virus type 1 group M subtype B, UniProt P03366); assay: Pre-steady-state single turnover RNase H reactions; type: biochemical; settings: PFA 0-10 μM, dTMP-terminated primer
[2] = molecular target: T1, HIV-1 RT-associated RNase H activity (polymerase-independent) (Human immunodeficiency virus type 1 group M subtype B, UniProt P03366); type: biochemical; settings: PFA 200 μM; chimeric substrate PBS-14r8d, 0-40 min
[3] = molecular target: T1, HIV-1 RT-associated RNase H activity (polymerase-independent); assay: biochemical; settings: IC50, primary cleavage, 600 nM chimeric hybrid labelled at 3' DNA end, 50 nM RT
p66^AzF/p51 RT = assay: FRET-based RNase H assay; type: biochemical, HIV-1; settings: azido function at position 501 (AzF)
p66^501BpF/p51 RT = p66^501BpF/p51 RT (Human immunodeficiency virus type 1, UniProt P03366, Y1100X); assay: FRET-based RNase H assay; type: biochemical, HIV-1

Question: Which results are given for `O=C(O)P(=O)(O)O` [PFA, Phosphonoformic acid]?
Answer: Position of RNase H cleavage with increasing ligand concentration [1]: biased cleavage to position -19; Inhibition of polymerase-independent RNase H cleavage [2]: does not inhibit RNase H cleavage

Question: Which IC50 [3] does the source give for `CC(C)c1ccc(O)c(=O)c(O)c1` [β-thujaplicinol] here?
Answer: > 25 µM

Question: And the “Effect of mutation on β-thujaplicinol sensitivity” value (p66^AzF/p51 RT)?
Answer: little to no effect

Question: And the IC50 (p66^501BpF/p51 RT)?
Answer: > 300 µM
